These results are taken from ChEMBL document CHEMBL4376820, “Homodimeric Tobramycin Adjuvant Repurposes Novobiocin as an Effective Antibacterial Agent against Gram-Negative Bacteria” (J Med Chem, 2019).

One may read the MIC as the lowest concentration found to suppress growth.

For test [1], the system named is Escherichia coli. In words: Antibacterial activity against wild type Escherichia coli ATCC 25922 incubated for 18 hrs by CLSI protocol based assay. The test is classed as functional. To be noted: ATCC 25922, 18 h.
Test [2] relates to Pseudomonas aeruginosa. Description: Synergistic antibacterial activity against wild type Pseudomonas aeruginosa PAO1 assessed as potentiation of moxifloxacin-induced antibacterial effect incubated for 18 hrs by checkerboard assay. In kind it is functional, organism-based.
In test [3] the test system is Acinetobacter baumannii. In words: Antibacterial activity against colistin-resistant Acinetobacter baumannii ATCC 17978 mutant generated from seven serial passages by checkerboard assay. The test is classed as functional.
Test [4] deals with Pseudomonas aeruginosa. Description: Synergistic antibacterial activity against wild type Pseudomonas aeruginosa PAO1 assessed as potentiation of doxycycline-induced antibacterial effect incubated for 18 hrs by checkerboard assay relative to doxycycline alone. In kind it is functional.

A value given as a limit tells only on which side of the number the result lay.

As for `NC[C@H]1O[C@H](O[C@H]2[C@H](OCCCCc3cn(CCCCO[C@@H]4[C@@H](O[C@H]5O[C@H](CO)[C@@H](O)[C@H](N)[C@H]5O)[C@H](N)C[C@H](N)[C@H]4O[C@H]4O[C@H](CN)[C@@H](O)C[C@H]4N)nn3)[C@@H](O[C@H]3O[C@H](CO)[C@@H](O)[C@H](N)[C@H]3O)[C@H](N)C[C@@H]2N)[C@H](N)C[C@@H]1O.O=C(O)C(F)(F)F.O=C(O)C(F)(F)F.O=C(O)C(F)(F)F.O=C(O)C(F)(F)F.O=C(O)C(F)(F)F.O=C(O)C(F)(F)F.O=C(O)C(F)(F)F.O=C(O)C(F)(F)F.O=C(O)C(F)(F)F.O=C(O)C(F)(F)F`, the results for the MIC in test [1] and in test [3] were more than 128 µg/mL and less than 0.031 µg/mL, respectively. Besides, in test [2], the Activity entry is “Dose-dependent effect”. Moreover, the “fold change (FC)” value in test [4] is on record as 4 - 128.
